Patent publication US9073961B2, “Substitution derivatives of N6 -benzyladenosine-5′-monophosphate, methods of preparation thereof, use thereof as medicaments, and therapeutic preparations containing these compounds” (UNIVERZITA PALACKEHO V OLOMOUCI, priority 2010, dated 2015)
pEC50: −log10 of the molar value.

What was measured:
Human lymphocytes = assay: Immunosuppressive activity, 3H-thymidine incorporation in concanavalin A activated lymphocytes; type: cell-based; conditions: 72 hours, [3H]-TdR incorporation, read-out: Human lymphocytes ED50
Description: One of the most important parameters of specific cellular immunity is the proliferative response of lymphocytes to antigens or polyclonal mitogens. The majority of normal mammalian peripheral lymphocytes comprise resting cells. Antigens or nonspecific polyclonal mitogens have the capacity to activate lymphoid cells and this is accompanied by dramatic changes of intracellular metabolism (mitochondrial activity, protein synthesis, nucleic acids synthesis, formation of blastic cells and cellular proliferation). […] Variety of in vitro assays was developed to measure proliferative response of lymphocytes. The most commonly used is ^3H-thymidine incorporation method.
During cell proliferation, DNA has to be replicated before the cell is divided into two daughter cells. This close association between cell doublings and DNA synthesis is very attractive for assessing cell proliferation. If labelled DNA precursors are added to the cell culture, cells that are about to divide incorporate the labelled nucleotide into their DNA. Traditionally, those assays usually involve the use of radiolabelled nucleosides, particularly tritiated thymidine ([^3H]-TdR). The amount of [^3H]-TdR incorporated into the cellular DNA is quantified by liquid scintillation counting.
Human heparinized peripheral blood was obtained from healthy volunteers by cubital vein punction. The blood was diluted in PBS (1:3) and mononuclear cells were separated by centrifugation in Ficoll-Hypaque density gradient (Pharmacia, 1.077 g/ml) at 2200 rpm for 30 minutes. Following centrifugation, lymphocytes were washed in PBS and resuspended in cell culture medium (RMPI 1640, 2 mM glutamine, 100 U/ml penicillin, 100 μg/ml streptomycin, 10% fetal calf serum and sodium bicarbonate).
The cells were diluted at target density of 1.100.000 cells/ml and were added by pipette (180 μl) into 96-well microtiter plates. Four-fold dilutions of the intended test concentration were added at time zero in 20 μl aliquots to the microtiter plate wells. Usually, test compound was evaluated at six 4-fold dilutions. In routine testing, the highest well concentration was 266.7 μM. All drug concentrations were examined in duplicates. All wells with exception of unstimulated controls were activated with 50 μl of concanavalin A (25 μg/ml). Incubations of cells with test compounds lasted for 72 hours at 37° C., in 5% CO2 atmosphere and 100% humidity. At the end of incubation period, the cells were assayed by using the [^3H]-TdR:
Cell cultures were incubated with 0.5 μCi (20 μl of stock solution 500 μCi/ml) per well for 6 hours at 37° C. and 5% CO2. The automated cell harvester was used to lyse cells in water and adsorb the DNA onto glass-fiber filters in the format of microtiter plate. The DNA incorporated [^3H]-TdR was retained on the filter while unincorporated material passes through. The filters were dried at room temperature overnight, sealed into a sample bag with 10-12 ml of scintillant. The amount of [^3H]-TdR present in each filter (in cpm) was determined by scintillation counting in a Betaplate liquid scintillation counter. The effective dose of immunosuppressant (ED) was calculated using the following equation: ED=(CCPMdrug exposed well/mean CCPMcontrol wells)×100%. The ED50 value, the drug concentration inhibiting proliferation of 50% of lymphocytes, was calculated from the obtained dose response curves.
To evaluate immunosuppressive activity of substituted adenines, their ability to inhibit polyclonal mitogen induced proliferation of normal human lymphocytes was analyzed (Table 4). […] Effective immunosuppressive dose of new derivatives under in vitro conditions was close to 10-40 μM.

[1] = system: HOS (human osteogenic sarcoma); assay: Calcein AM cytotoxicity assay, HOS; type: cell-based; conditions: 72 hours incubation
Description: (§1) Because toxic compounds negatively influence metabolic processes in cells, many standard cytotoxicity assays are based on measurement of metabolisation rate of various artificial substrates. Resulting product is then quantified e.g. by means of spectrometry. The assays can be easily modified for use in 96-well plates. For evaluation of cytotoxic effect of the novel substituted 9-substituted cytokinin derivatives of this invention, a microtiter assay based on quantification of metabolisation of Calcein AM was used. The assay is widely used in drug screening programs and in chemosensitivity testing. In the living cells, Calcein AM is enzymatically hydrolysed and accumulation of resulting calcein is manifested by green fluorescence.
(§2) In the routine screening the following cell lines have been used: CEM (T-lymphoblastoid leukemia), HL-60 (promyelocytic leukemia), K-562 (human erythroleukemia), MCF-7 (breast carcinoma), HOS (human osteogenic sarcoma), and G-361 (human malignant melanoma). Normal human fibroblasts BJ were used as a control for routine screening of the compounds. The cells were kept in Nunc/Corning 80 cm^2 plastic bottles and grown in cell culture medium (DMEM containing 5 g/l glucose, 2 mM glutamine, 100 U/ml penicilline, 100 μg/ml streptomycine, 10% fetal bovine serum and sodium hydrogencarbonate), the compounds were prepared according to the procedure of the present invention.
(§3) The cell suspensions were prepared and diluted according to the particular cell type and the expected target cell density (2.500-30.000 cells per well based on cell growth characteristics) and pippetted (80 μl) into 96-well plates. Inoculates were allowed a pre-incubation period of 24 hours at 37° C. and 5% CO2 for stabilisation. Tested compound was added in total volume of 20 μl of water at time zero. Usually, test compound was evaluated at six 3-fold dilutions. In routine testing, the highest concentration tested was 166.7 μM. All drug concentrations were tested in triplicates. Incubations of cells with the test compounds lasted for 72 hours at 37° C., in 5% CO2 atmosphere and 100% humidity. At the end of incubation period Calcein AM in PBS was added into final concentration of 1 μg/ml. After another 1 hour of incubation fluorescence (FD) was measured with the Labsystem FIA Reader Fluoroscan Ascent (Microsystems). Tumor cell survival (TCS) was estimated using the following equation: […]=(FDdrug exposed well/FDcontrol well)×100%. The GI50 value, the drug concentration causing 50% reduction of esterase activity, was calculated from the obtained dose response curves (FIG. 1).
(§4) Cytoxicity of novel compounds was tested on panel of cell lines of different histogenetic and species origin (Table 3). […] The effective novel derivatives killed tumour cells in concentrations close to 0.1-50 μM.

[2] = system: K-562 (human erythroleukemia); assay: Calcein AM cytotoxicity assay, K-562; type: cell-based; conditions: 72 hours incubation
Description: as §1, §2, §3, §4

MCF-7 (breast carcinoma) = assay: Calcein AM cytotoxicity assay, MCF7; type: cell-based; conditions: 72 hours incubation
Description: as §1, §2, §3, §4

[3] = system: CEM (T-lymphoblastoid leukemia); assay: Calcein AM cytotoxicity assay, CEM; type: cell-based; conditions: 72 hours incubation, Calcein AM
Description: as §1, §2, §3, §4

[4] = system: HL-60 (promyelocytic leukemia); assay: Calcein AM cytotoxicity assay, HL60; type: cell-based, human; conditions: 72 hours incubation
Description: as §1, §2, §3, §4

[5] = system: cytokinin-dependent tobacco callus Nicotiana tabacum L. cv. Wisconsin 38; assay: Growth of cytokinin-dependent tobacco callus; type: cell-based; conditions: for Activity (%) [10^−5 mol · l^−1 KR = 100%]: at concentration with highest activity, relative to control cytokinin; for Concentration with highest activity: tobacco callus fresh weight after four weeks
Method: Cytokinin effect of newly prepared derivatives was tested using cytokinin-dependent tobacco callus. The cytokinin-dependent tobacco callus Nicotiana tabacum L. cv. Wisconsin 38 was maintained at 25° C. in darkness on modified MS medium, containing per 1 liter: 4 μmol of nicotinic acid, 2.4 μmol of pyridoxine hydrochloride, 1.2 μmol of thiamine, 26.6 μmol of glycine, 1.37 μmol of glutamine, 1.8 μmol of myo-inositol, 30 g of sucrose, 8 g of agar, 5.37 μmol of NAA and 0.5 μmol of the compound tested. Subcultivation was carried out every three weeks. Fourteen days before the bioassay, the callus tissue was transferred to the media without 6-benzylaminopurine. The biological activity was determined from the increase of the fresh callus weight after four weeks of cultivation. Five replicates were prepared for each concentration of the compound tested and the entire test was repeated twice. […] The compounds to be tested were dissolved in dimethylsulfoxide (DMSO) and the solution brought up to 10^−3 M with distilled water. […] The stimulatory activity was calculated from the dose-dependent fresh weight callus growth curves.
From the obtained data, the concentration with the highest activity was selected for each compound tested. Relative activity of the compound at this concentration was calculated (Table 5). […]

[6] = system: Normal human fibroblasts BJ; assay: Calcein AM cytotoxicity assay, BJ; type: cell-based; conditions: 72 hours incubation
Description: as §1, §2, §3, §4

[7] = system: G-361 (human malignant melanoma); assay: Calcein AM cytotoxicity assay, G-361; type: cell-based; conditions: 72 hours incubation
Description: as §1, §2, §3, §4

## O=P(O)(O)OC[C@H]1O[C@@H](n2cnc3c(NCc4cccc(Cl)c4O)ncnc32)[C@H](O)[C@@H]1O [2-hydroxy-3-chlorobenzylamino, 6-(2-hydroxy-3-chlorobenzylamino)purine ribo side-5′-monophosphate]
Human lymphocytes
  pEC50: 5.49

## COc1ccc(CNc2ncnc3c2ncn3[C@@H]2O[C@H](COP(=O)(O)O)[C@@H](O)[C@H]2O)c(O)c1 [2-hydroxy-4-methoxybenzylamino, 6-(2-hydroxy-4-methoxybenzylamino)purine riboside-5′-monophosphate]
Human lymphocytes
  pEC50: 5.68

## O=P(O)(O)OC[C@H]1O[C@@H](n2cnc3c(NCc4ccc(O)c(O)c4)ncnc32)[C@H](O)[C@@H]1O [3,4-dihydroxybenzylamino, 6-(3,4-dihydroxybenzylamino)purine riboside-5′-monophosphate]
Human lymphocytes
  pEC50: 5.03

## O=P(O)(O)OC[C@H]1O[C@@H](n2cnc3c(NCc4ccccc4F)ncnc32)[C@H](O)[C@@H]1O [Compound 1, 6-(2-fluorobenzylamino)purine riboside-5′-monophosphate]
[1]
  GI50: > 167 µM
[2]
  GI50: 33.2 µM
MCF-7 (breast carcinoma)
  GI50: > 167 µM
[3]
  GI50: 4.6 µM
[4]
  GI50: 3.2 µM
Human lymphocytes
  pEC50: 5.20
[5]
  Activity (%) [10^−5 mol · l^−1 KR = 100%]: 100 ± 9%
  Concentration with highest activity: 10^−6 mol · l^−1

## O=P(O)(O)OC[C@H]1O[C@@H](n2cnc3c(NCc4ccc(F)cc4)ncnc32)[C@H](O)[C@@H]1O [Compound 3, 6-(4-fluorobenzylamino)purine riboside-5′-monophosphate]
[1]
  GI50: 20 µM
[2]
  GI50: 6.4 µM
MCF-7 (breast carcinoma)
  GI50: 14 µM
[6]
  GI50: > 167 µM
[3]
  GI50: 1.5 µM
[4]
  GI50: 0.86 µM
Human lymphocytes
  pEC50: 4.87

## O=P(O)(O)OC[C@H]1O[C@@H](n2cnc3c(NCc4ccccc4Cl)ncnc32)[C@H](O)[C@@H]1O [Compound 4, 6-(2-chlorobenzylamino)purine riboside-5′-monophosphate]
[1]
  GI50: > 167 µM
[2]
  GI50: 64 µM
MCF-7 (breast carcinoma)
  GI50: > 167 µM
[6]
  GI50: > 167 µM
[3]
  GI50: 14.5 µM
[4]
  GI50: 1.6 µM
Human lymphocytes
  pEC50: 5.06
[5]
  Activity (%) [10^−5 mol · l^−1 KR = 100%]: 121 ± 4%
  Concentration with highest activity: 10^−6 mol · l^−1

## O=P(O)(O)OC[C@H]1O[C@@H](n2cnc3c(NCc4cccc(Cl)c4)ncnc32)[C@H](O)[C@@H]1O [Compound 5, 6-(3-chlorobenzylamino)purine riboside-5′-monophosphate]
[1]
  GI50: > 167 µM
[2]
  GI50: 30.4 µM
MCF-7 (breast carcinoma)
  GI50: > 167 µM
[6]
  GI50: > 167 µM
[3]
  GI50: 1.6 µM
[4]
  GI50: 0.75 µM
Human lymphocytes
  pEC50: 5.49
[5]
  Activity (%) [10^−5 mol · l^−1 KR = 100%]: 109 ± 5%
  Concentration with highest activity: 10^−5 mol · l^−1

## O=P(O)(O)OC[C@H]1O[C@@H](n2cnc3c(NCc4ccc(Cl)cc4)ncnc32)[C@H](O)[C@@H]1O [Compound 6, 6-(4-chlorobenzylamino)purine riboside-5′-monophosphate]
[1]
  GI50: > 167 µM
[2]
  GI50: 16.1 µM
MCF-7 (breast carcinoma)
  GI50: > 167 µM
[6]
  GI50: > 167 µM
[3]
  GI50: 6.5 µM
[4]
  GI50: 5.3 µM
Human lymphocytes
  pEC50: 5.48

## Cc1ccccc1CNc1ncnc2c1ncn2[C@@H]1O[C@H](COP(=O)(O)O)[C@@H](O)[C@H]1O [Compound 12, 6-(2-methylbenzylamino)purine riboside-5′-monophosphate]
[1]
  GI50: > 167 µM
[2]
  GI50: > 167 µM
MCF-7 (breast carcinoma)
  GI50: > 167 µM
[6]
  GI50: > 167 µM
[3]
  GI50: 14 µM
[4]
  GI50: 3.3 µM
Human lymphocytes
  pEC50: 5.14
[5]
  Activity (%) [10^−5 mol · l^−1 KR = 100%]: 108 ± 4%
  Concentration with highest activity: 10^−6 mol · l^−1

## Cc1cccc(CNc2ncnc3c2ncn3[C@@H]2O[C@H](COP(=O)(O)O)[C@@H](O)[C@H]2O)c1 [Compound 13, 6-(3-methylbenzylamino)purine riboside-5′-monophosphate]
[1]
  GI50: > 167 µM
[2]
  GI50: > 167 µM
MCF-7 (breast carcinoma)
  GI50: > 167 µM
[6]
  GI50: > 167 µM
[3]
  GI50: 19.1 µM
[4]
  GI50: 6.4 µM
Human lymphocytes
  pEC50: 5.12

## O=P(O)(O)OC[C@H]1O[C@@H](n2cnc3c(NCc4ccc(O)cc4)ncnc32)[C@H](O)[C@@H]1O [Compound 23, 6-(4-hydroxybenzylamino)purine riboside-5′-monophosphate]
[1]
  GI50: > 167 µM
[2]
  GI50: > 167 µM
MCF-7 (breast carcinoma)
  GI50: > 167 µM
[6]
  GI50: > 167 µM
[7]
  GI50: > 167 µM
[3]
  GI50: 39.7 µM
[4]
  GI50: 9.5 µM

## COc1ccc(O)c(CNc2ncnc3c2ncn3[C@@H]2O[C@H](COP(=O)(O)O)[C@@H](O)[C@H]2O)c1 [Compound 29, 6-(2-hydroxy-5-methoxybenzylamino)purine riboside-5′-monophosphate]
[1]
  GI50: 6.4 µM
[2]
  GI50: 15.4 µM
MCF-7 (breast carcinoma)
  GI50: 21 µM
[6]
  GI50: 87.9 µM
[7]
  GI50: 12.3 µM
[3]
  GI50: 0.9 µM
[4]
  GI50: 0.54 µM
